Common to all, as to type: cell-based
One assay addresses T1, Human Nav1.8 (Homo sapiens, UniProt Q9Y5Y9).
T1 construct: expressed in transfected cells; host or cells: HEK293
In words: VIPR Assay for Nav1.8 Compounds (FRET membrane potential, deltamethrin opener). As to conditions: VIPR FRET membrane potential assay, deltamethrin opener; average of replicates; read-out: Nav1.8 IC50.

The subject of assay [1] is tetrodotoxin-sensitive voltage-gated sodium channels including NaV1.2, NaV1.3 and NaV1.7. In words: TTX-S Assay (VIPR, SHSY-5Y cell line, veratridine opener). As to conditions: read-out: TTX-S IC50, veratridine 50 μM opener, average of replicates.
The target in another assay is T2, Human Nav1.5 (Homo sapiens, UniProt Q14524).
T2 construct: expressed in transfected cells; host or cells: HEK293
T2 sequence (Q14524 whole entry): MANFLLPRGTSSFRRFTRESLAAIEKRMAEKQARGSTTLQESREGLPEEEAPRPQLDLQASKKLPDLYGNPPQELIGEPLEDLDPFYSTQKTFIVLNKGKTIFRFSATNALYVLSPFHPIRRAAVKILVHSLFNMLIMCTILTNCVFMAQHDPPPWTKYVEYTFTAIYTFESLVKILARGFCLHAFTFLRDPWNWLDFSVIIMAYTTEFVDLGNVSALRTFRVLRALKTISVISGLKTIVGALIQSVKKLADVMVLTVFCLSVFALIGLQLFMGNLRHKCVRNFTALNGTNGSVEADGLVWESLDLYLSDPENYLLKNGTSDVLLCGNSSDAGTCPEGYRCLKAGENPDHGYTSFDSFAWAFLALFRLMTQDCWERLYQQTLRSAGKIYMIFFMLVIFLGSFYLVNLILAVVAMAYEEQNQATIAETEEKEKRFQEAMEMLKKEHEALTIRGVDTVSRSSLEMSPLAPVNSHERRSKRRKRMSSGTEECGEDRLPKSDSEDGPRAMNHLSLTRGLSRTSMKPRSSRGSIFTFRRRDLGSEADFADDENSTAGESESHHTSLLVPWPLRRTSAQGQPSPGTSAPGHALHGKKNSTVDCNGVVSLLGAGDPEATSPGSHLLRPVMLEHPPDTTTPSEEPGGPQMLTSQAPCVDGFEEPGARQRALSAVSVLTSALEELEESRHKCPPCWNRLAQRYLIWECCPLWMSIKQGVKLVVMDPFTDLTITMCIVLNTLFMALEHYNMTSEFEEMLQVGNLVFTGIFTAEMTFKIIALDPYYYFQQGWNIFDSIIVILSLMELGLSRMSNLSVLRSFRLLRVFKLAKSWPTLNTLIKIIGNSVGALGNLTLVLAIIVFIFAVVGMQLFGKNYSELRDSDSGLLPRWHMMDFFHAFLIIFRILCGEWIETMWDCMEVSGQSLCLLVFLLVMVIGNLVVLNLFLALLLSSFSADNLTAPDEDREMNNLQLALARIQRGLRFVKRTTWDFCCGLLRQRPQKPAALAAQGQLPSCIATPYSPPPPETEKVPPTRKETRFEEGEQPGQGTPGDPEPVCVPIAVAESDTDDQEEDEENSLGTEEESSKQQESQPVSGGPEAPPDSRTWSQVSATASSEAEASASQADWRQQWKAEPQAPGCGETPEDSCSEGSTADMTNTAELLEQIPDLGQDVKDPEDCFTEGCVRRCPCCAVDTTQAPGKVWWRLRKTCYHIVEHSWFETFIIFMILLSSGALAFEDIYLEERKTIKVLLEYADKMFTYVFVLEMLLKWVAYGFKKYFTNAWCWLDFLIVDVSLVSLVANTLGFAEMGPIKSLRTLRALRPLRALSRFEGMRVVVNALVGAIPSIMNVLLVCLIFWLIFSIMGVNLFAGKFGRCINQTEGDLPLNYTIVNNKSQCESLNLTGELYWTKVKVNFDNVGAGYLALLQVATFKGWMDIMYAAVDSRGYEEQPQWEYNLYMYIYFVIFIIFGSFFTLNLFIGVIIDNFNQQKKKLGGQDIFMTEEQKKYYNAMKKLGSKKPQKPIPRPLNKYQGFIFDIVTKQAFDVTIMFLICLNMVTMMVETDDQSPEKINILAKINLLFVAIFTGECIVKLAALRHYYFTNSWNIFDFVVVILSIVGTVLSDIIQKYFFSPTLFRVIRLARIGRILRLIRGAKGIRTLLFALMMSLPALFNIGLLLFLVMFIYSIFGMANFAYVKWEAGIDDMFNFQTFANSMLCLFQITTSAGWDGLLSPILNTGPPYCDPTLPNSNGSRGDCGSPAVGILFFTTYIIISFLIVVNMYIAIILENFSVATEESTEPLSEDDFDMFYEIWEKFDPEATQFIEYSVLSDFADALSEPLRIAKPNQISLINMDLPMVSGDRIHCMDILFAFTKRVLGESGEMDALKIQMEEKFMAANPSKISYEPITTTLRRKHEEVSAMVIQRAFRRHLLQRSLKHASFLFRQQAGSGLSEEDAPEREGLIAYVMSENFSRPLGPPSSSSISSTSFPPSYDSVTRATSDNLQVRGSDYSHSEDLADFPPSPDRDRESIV
In words: Nav1.5 Assay (VIPR, HEK293 cells). As to conditions: HEK293 cells expressing Human Nav1.5; average of replicates; read-out: Nav1.5 IC50. The procedure: The Nav1.5 assay is performed in HEK293 cells expressing Human Nav1.5 in the same way as the Nav1.8 assay.
Where replicate experiments were conducted resulting in multiple sets of data for a test compound, the data presented represent the average value from all replicate experiments.

As a reminder, the IC50 is the concentration at which inhibition is half-maximal.

T1 sequence (Q9Y5Y9 whole entry): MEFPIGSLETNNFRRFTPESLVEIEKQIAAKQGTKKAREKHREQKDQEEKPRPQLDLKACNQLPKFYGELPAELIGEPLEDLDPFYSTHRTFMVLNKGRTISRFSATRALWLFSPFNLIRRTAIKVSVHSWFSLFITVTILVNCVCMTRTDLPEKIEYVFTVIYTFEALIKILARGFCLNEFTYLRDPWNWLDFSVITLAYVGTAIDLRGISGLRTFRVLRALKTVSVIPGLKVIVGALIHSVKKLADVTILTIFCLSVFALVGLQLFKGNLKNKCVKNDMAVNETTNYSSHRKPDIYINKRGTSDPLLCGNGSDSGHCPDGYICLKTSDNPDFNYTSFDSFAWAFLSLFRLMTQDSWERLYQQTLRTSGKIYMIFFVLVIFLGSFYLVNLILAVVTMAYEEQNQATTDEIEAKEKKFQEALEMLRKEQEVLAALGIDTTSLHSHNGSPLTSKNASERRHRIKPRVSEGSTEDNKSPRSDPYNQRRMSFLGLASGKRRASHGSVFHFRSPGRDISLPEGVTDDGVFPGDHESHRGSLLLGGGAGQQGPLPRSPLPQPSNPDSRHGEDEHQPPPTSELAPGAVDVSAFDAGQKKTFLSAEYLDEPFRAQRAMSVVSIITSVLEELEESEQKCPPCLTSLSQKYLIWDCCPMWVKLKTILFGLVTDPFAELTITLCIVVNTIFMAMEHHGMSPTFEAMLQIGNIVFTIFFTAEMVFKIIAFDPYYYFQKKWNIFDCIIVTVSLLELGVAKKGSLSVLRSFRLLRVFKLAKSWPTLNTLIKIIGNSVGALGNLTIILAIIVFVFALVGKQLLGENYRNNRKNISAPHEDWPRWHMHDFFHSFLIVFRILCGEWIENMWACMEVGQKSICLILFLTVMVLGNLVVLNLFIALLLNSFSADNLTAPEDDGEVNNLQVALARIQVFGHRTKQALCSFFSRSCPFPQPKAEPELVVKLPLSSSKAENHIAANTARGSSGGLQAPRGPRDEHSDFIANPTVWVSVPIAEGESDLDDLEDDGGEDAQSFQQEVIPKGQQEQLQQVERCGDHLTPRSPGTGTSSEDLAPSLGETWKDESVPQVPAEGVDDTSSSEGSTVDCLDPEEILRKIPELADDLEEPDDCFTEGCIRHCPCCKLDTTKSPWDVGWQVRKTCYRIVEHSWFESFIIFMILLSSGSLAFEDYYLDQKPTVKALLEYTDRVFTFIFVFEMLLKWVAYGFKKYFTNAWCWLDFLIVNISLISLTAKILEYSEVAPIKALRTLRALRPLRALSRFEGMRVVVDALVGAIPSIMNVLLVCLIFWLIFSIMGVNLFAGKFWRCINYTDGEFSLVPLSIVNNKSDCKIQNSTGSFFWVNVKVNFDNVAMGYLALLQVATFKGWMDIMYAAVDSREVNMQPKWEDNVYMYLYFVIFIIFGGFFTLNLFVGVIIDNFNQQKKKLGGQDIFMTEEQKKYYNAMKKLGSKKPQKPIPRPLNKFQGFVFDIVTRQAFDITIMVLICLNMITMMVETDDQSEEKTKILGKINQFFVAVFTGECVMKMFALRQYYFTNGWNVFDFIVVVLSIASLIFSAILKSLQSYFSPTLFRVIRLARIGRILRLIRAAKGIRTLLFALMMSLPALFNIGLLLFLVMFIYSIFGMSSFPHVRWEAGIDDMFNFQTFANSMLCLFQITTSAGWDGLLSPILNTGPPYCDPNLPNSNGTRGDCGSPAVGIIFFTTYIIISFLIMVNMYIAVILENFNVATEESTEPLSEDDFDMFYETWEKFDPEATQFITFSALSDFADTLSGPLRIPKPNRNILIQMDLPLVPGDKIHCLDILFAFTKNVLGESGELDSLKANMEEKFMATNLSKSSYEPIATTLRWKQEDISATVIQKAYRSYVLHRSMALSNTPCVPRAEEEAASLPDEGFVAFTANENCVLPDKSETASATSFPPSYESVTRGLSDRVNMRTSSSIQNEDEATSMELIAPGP

For `Nc1nc(NC(=O)c2conc2C(F)(F)F)ccc1-c1cc(F)ccc1Cl` [Example 114], the figures for the IC50 (at Human Nav1.8; in assay [1]; at Human Nav1.5) were 0.31 µM, 4 µM and 4.1 µM, respectively.
In the same order, the values of `CCn1nccc1C(=O)Nc1ccc(-c2cc(OC)ccc2Cl)c(N)n1` [Example 52, N-[6-Amino-5-(2-chloro-5-methoxyphenyl)pyridin-2-yl]-1-ethyl-1H-pyrazole-5-carboxamide] are 0.95 µM, 6.4 µM and 16 µM.
For `Cc1nocc1C(=O)Nc1ccc(-c2ccccc2F)c(N)n1` [Example 33, N-[6-Amino-5-(2-fluorophenyl)pyridin-2-yl]-3-methylisoxazole-4-carboxamide], the IC50 at Human Nav1.8 is 6.5 µM; in assay [1], 23 µM; on Human Nav1.5 it was greater than 32 µM.
For the molecule `CCn1nccc1C(=O)Nc1ccc(-c2ccccc2Cl)c(N)n1` [Example 53, N-[6-Amino-5-(2-chlorophenyl)pyridin-2-yl]-1-ethyl-1H-pyrazole-5-carboxamide], the concentration for half-maximal inhibition (IC50) on Human Nav1.8 is 2.3 µM; in assay [1] it was 15 µM; on Human Nav1.5, 22 µM.
Turning to `Cn1nccc1C(=O)Nc1ccc(-c2ccccc2Cl)c(N)n1` [Example 1, N-[6-Amino-5-(2-chlorophenyl)pyridin-2-yl]-1-methyl-1H-pyrazole-5-carboxamide], the IC50 on Human Nav1.8 was 5.8 µM; in assay [1] it was greater than 32 µM; at Human Nav1.5, 24 µM.
In the same order, the values of `Cc1nocc1C(=O)Nc1ccc(-c2cc(F)ccc2O)c(N)n1` [Example 128] are 15 µM, greater than 32 µM and greater than 32 µM.
`Cn1nccc1C(=O)Nc1ccc(-c2cc(Cl)ccc2OC(F)(F)F)c(N)n1` [Example 16, N-{6-Amino-5-[5-chloro-2-(trifluoromethoxy)phenyl]pyridin-2-yl}-1-methyl-1H-pyrazole-5-carboxamide]: the IC50 at Human Nav1.8 was found to be 1.9 µM; in assay [1] it was 9.6 µM; on Human Nav1.5, 11 µM.
In the same order, the values of `Nc1nc(NC(=O)c2conc2C(F)(F)F)ccc1-c1ccccc1Cl` [Example 111] are 0.51 µM, 6.1 µM and 16 µM.
With `Cc1nocc1C(=O)Nc1ccc(-c2cc(Cl)cc3c2OCCO3)c(N)n1` [Example 30, N-[6-Amino-5-(7-chloro-2,3-dihydro-1,4-benzodioxin-5-yl)pyridin-2-yl]-3-methylisoxazole-4-carboxamide], the IC50 at Human Nav1.8 stood at 1.3 µM; in assay [1] it was 28 µM; at Human Nav1.5 it was 16 µM.
In the case of `COCc1oncc1C(=O)Nc1ccc(-c2cc(F)ccc2Cl)c(N)n1` [Example 92], the IC50 at Human Nav1.8 was 0.57 µM; in assay [1], 17 µM; on Human Nav1.5 it was 19 µM.
As to `COc1cc(Cl)c(Cl)c(-c2ccc(NC(=O)c3nonc3C)nc2N)c1` [Example 48, N-[6-Amino-5-(2,3-dichloro-5-methoxyphenyl)pyridin-2-yl]-4-methyl-1,2,5-oxadiazole-3-carboxamide], the values for the IC50 (at Human Nav1.8; in assay [1]; on Human Nav1.5) were 0.76 µM, 3.3 µM and 22 µM, respectively.
Consider `Cn1nccc1C(=O)Nc1ccc(-c2cc(F)ccc2C(F)(F)F)c(N)n1` [Example 12, N-{6-Amino-5-[5-fluoro-2-(trifluoromethyl)phenyl]pyridin-2-yl}-1-methyl-1H-pyrazole-5-carboxamide], for which the values for the IC50 (at Human Nav1.8; in assay [1]; on Human Nav1.5) were 3 µM, greater than 32 µM and greater than 32 µM, respectively.
In the case of `Nc1nc(NC(=O)c2ccno2)ccc1-c1cc(Cl)cc(Cl)c1Cl` [Example 78, N-[6-Amino-5-(2,3,5-trichlorophenyl)pyridin-2-yl]isoxazole-5-carboxamide], the figures for the IC50 (on Human Nav1.8; in assay [1]; on Human Nav1.5) were 1.4 µM, 8.3 µM and 14 µM, respectively.
With `CCn1nccc1C(=O)Nc1ccc(-c2cc(OC(F)(F)F)ccc2F)c(N)n1` [Example 64, N-{6-Amino-5-[2-fluoro-5-(trifluoromethoxy)phenyl]pyridin-2-yl}-1-ethyl-1H-pyrazole-5-carboxamide], the IC50 was 5 µM at Human Nav1.8, 3.7 µM in assay [1] and 14 µM on Human Nav1.5.
Take `COc1cc(Cl)c(Cl)c(-c2ccc(NC(=O)c3ccnn3C)nc2N)c1` [Example 7, N-[6-Amino-5-(2,3-dichloro-5-methoxyphenyl)pyridin-2-yl]-1-methyl-1H-pyrazole-5-carboxamide]: the IC50 on Human Nav1.8 was found to be 0.63 µM; in assay [1], 9.2 µM; at Human Nav1.5, 6.3 µM.
Turning to `COc1ccc(Cl)c(-c2ccc(NC(=O)c3ccnn3C)nc2N)c1` [Example 5, N-[6-Amino-5-(2-chloro-5-methoxyphenyl)pyridin-2-yl]-1-methyl-1H-pyrazole-5-carboxamide], the IC50 at Human Nav1.8 is 0.9 µM; in assay [1], greater than 32 µM; at Human Nav1.5, greater than 32 µM.

The values above are taken from patent US8134007B2, “Pyridine derivatives” (Pfizer Inc., priority 2007, dated 2012).
